In patent US6740680B1, “Pharmaceutical compositions to tetrac and methods of use thereof” (Becton Pharma, Inc., priority 1999, dated 2004):
Read-outs that look alike come from different tables or passages of the source.

Columns and labels:
[1] = tested on: hypothyroid rats; assay: Heart weight and heart/body weight in hypothyroid rats infused with Tetrac or T4; assay type: in vivo, rat; conditions: hypothyroid rats, mean ± SEM; for Heart: continuous minipump infusion
Description: (§1) Seventy-nine male SIVZ rats were purchased from the breeder (Institut für Labortierkunde des Universität Zürich, Zürich, Switzerland). They were rendered hypothyroid by a single injection of [^131I]Na (100 μCi/rat) and before and throughout the experiment 0.02% 2-mercapto-1-methylimidazol (MMI) was added to drinking water. In order to have an euthyroid control group of similar weight and identical age, 10 rats received only MMI in the drinking water and 2 weeks before implanting the minipumps, MMI was withdrawn. Osmotic minipumps (secretion rate 0.25 μl/hour, duration 14 days) were implanted intraperitoneally (i.p.) 2 months after the injection of [^131I]Na. The minipumps were filled with T4 or Tetrac dissolved in 0.05 N NaOH, 2% BSA and 100,000 cpm [^125I]T4 or [^125I]Tetrac as control of their secretion rates. The infusion lasted 13 days. 0, 1.5, 4.5, 13.5 and 40.5 nmol Tetrac/day/100 g or 0.5, 1.5, 4.5 and 13.5 nmol T4/day/100 g bodyweight (BW) (n=4/dose) were infused. An euthyroid control group was included. The animals were weighed every 2 days. Rats were sacrificed by decapitation and blood was collected and stored at […] until use. Tissues (liver, heart, brown adipose tissue, cerebral cortex and pituitary) were removed rapidly, frozen in liquid nitrogen and stored at […] until use.

[2] = tested on: TSH; assay: Serum TSH in hypothyroid rats infused with Tetrac or T4; assay type: in vivo, rat; conditions: for Serum TSH: hypothyroid rats, mean ± SEM
Description: Seventy-nine male SIVZ rats were purchased from the breeder (Institut für Labortierkunde des Universität Zürich, Zürich, Switzerland). […] The infusion lasted 13 days. […] An euthyroid control group was included. The animals were weighed every 2 days. Rats were sacrificed by decapitation and blood was collected and stored at […] until use. Tissues (liver, heart, brown adipose tissue, cerebral cortex and pituitary) were removed rapidly, frozen in liquid nitrogen and stored at […] until use.
Hornone assays. […] Endocrinol. […] Serum TSH measurements were performed with reagents kindly provided by the National Pituitary Program, NIAMDD, NIH (Bethesda, USA).

[3] = Serum T3, T4, Triac and Tetrac levels in infused rats; assay type: in vivo; conditions: male, SIVZ, rat, intraperitoneal, mean ± SEM, read-out: Serum T4
Description: as §1
Hornone assays. Total serum T4, T3, Tetrac, Triac and TSH levels (intra-assay coefficient of variation 7 to 10%, inter-assay coefficient of variation 12 to 15%) were measured using the method of Burger, A., Sakoloff, C., Staeheli, V., Vallotton, M. D., and Ingbar, S. H. Acta. Endocrinol. (Copenh.) 80: 58-69 (1975). Serum TSH measurements were performed with reagents kindly provided by the National Pituitary Program, NIAMDD, NIH (Bethesda, USA). The detection limits were 0.80 ng TSH/ml; 9.5 pmol T4/ml; 0.16 pmol T3/ml; 10 pmol Tetrac/ml and 0.52 pmol Triac/ml.

[4] = tested on: Monodeiodinase type 1; assay: Monodeiodinase type 1 activity in liver and heart homogenates of infused rats; assay type: in vivo, rat; conditions: Liver, infused rats, adjusted group mean at the mean Ln (TSH) concentration
Description: as §1
(§2) Monodeiodinase type 1 and 2 activities. Monodeiodinase type 1 and type 2 activities were determined in tissue homogenates by measuring the release of radioiodide from [^125I]rT3 according to the method of Leonard and Rosenberg (Leonard, J. L. et al. Endocrinology (1980) 106: 444-451).
(§3) Monodeiodinase type 1 activity was measured in liver homogenates using 1 μM rT3 and 1 mM DTT with 10 min of incubation, whereas for heart, 0.01 μM rT3 and 10 mM DTT with 1 hour of incubation. Monodeiodinase type 2 activity was measured in brown adipose tissue (BAT) and cerebral cortex using 1 nM rT3, 10 mM DTT and 1 mM propylthiouracil (PTU) with 1 hour of incubation. Protein concentrations were measured by the method of Bradford (Bio-Rad Laboratories GmbH, Munich, Germany) with bovine gammaglobulin as the protein standard. In order to study the effect of circulating Tetrac on the enzyme activities, 2 rats were injected intraperitoneally with 10 μCi ^125I Tetrac and killed 6 hours later. The tissue homogenates were extracted with 3 volumes of ethanol-NH3 (97:3). After 10 minutes centrifugation at 15,000 g, the supernatant was vacuum dried and applied to TLC (Merck 254, Toluol, acetic acid, water: 2:2:1). In order to calculate the tissue concentrations, the highest serum Tetrac levels were used (406 pmol/ml). The calculated tissue concentrations were: liver: 1.9, heart: 2.29 and brain cortex: 0.47 fluol Tetrac/μg protein.

[5] = tested on: Monodeiodinase type 2; assay: Monodeiodinase type 2 activity in brain cortex and brown adipose tissue of infused rats; assay type: in vivo, rat; conditions: for Residual monodeiodinase type 2 activity, adjusted mean: infused rats, remaining activity, adjusted group mean at the mean Ln (TSH) concentration
Description: as §1, §2, §3

[6] = tested on: monodeiodinase type 1 mRNA; assay: Northern blot, hepatic monodeiodinase type 1 mRNA; assay type: in vivo, rat; conditions: Liver, infused rats, adjusted group mean at the mean Ln (TSH) concentration
Description: as §1
(§4) Total RNA extraction and Northern Blot hybridization Total RNA was extracted with the method of Chomczynski and Sacchi (Chomczynski, P. and Sacchi, N. Anal. Biochem. (1987) 162: 156-159). […]
(§5) The amount of labeled mRNA was quantified by scanning laser densitometry (Phosphorimager, Molecular Dynamics; Sunnyvale, USA). Variations in RNA loading and membrane transfer were corrected by densitometric quantification of a negative photograph of 28S and 18S ribosomal RNA bands from ethidium bromide stained RNA gels. […]

[7] = tested on: α-MHC mRNA; assay: Northern blot, α-MHC mRNA in heart; assay type: in vivo, rat
Description: as §1, §4, §5

[8] = tested on: β-MHC mRNA; assay: Northern blot, β-MHC mRNA in heart; assay type: in vivo, rat; conditions: infused rats, adjusted group mean at the mean Ln (TSH) concentration
Description: as §1, §4, §5

[9] = tested on: GH mRNA; assay: Northern blot, growth hormone mRNA in pituitary; assay type: in vivo, rat; conditions: infused rats, adjusted group mean at the mean Ln (TSH) concentration
Description: as §1, §4, §5

[10] = tested on: Cynomologus monkeys
Description: Preparation of Tetrac for injection. Tetrac from Rhône-Poulenc and Henning Laboratory were compared. Tetrac powder was dissolved in sterile 0.1 N NaOH at 2 mg/ml. This solution was made before the beginning of each treatment period and stored at 4° C. in polypropylene tubes, protected from light. Each solution for injection was prepared daily after dilution in the vehicle (0.9% NaCl) containing 5% monkey serum (v/v), and was stored at room temperature and protected from light, according to the storage conditions of the test substance.
Animals. One male and one female purpose bred Cynomologus monkeys Macaca fascicularis were supplied by Centre de Recherches Primatologiques, Port Louis, Mauritius. […] The animals were individually housed in stainless steel cages and a metallic tray was placed under each cage in order to collect urine. The animals were fed daily with approximately 200 grams each of U.A.R. 107 C pelleted diet (batch Nos. 61106, 61207 and 70317, U.A.R., Villemoisson-sur-Orge, France), distributed about 2 hours after treatment with Tetrac. No contaminants were known to have been present in the diet, drinking water or bedding material at levels which may be expected to have interfered with or prejudiced the outcome of the study.
Weeks 1 to 3 and weeks 7 to 9: the animals received the test substance TETRAC provided either by Rhone-Poulenc or by Henning Laboratories over a three-week period.
Weeks 4 to 6 and weeks 10 to 12: a washout period of three weeks was observed.
Administration of Tetrac. Tetrac was administered via intramuscular injection into the thigh muscle once a day, at approximately the same time each day, several days a week over a three week period. The quantity of tetrac administered to each animal was adjusted according to the most recently recorded body weight. A constant dosage-volume of 0.5 ml/kg was used.
Morbidity and mortality. The animals were checked at least twice a day, for mortality and signs of morbidity.
Body weight. Body weight was recorded for each animal once before the beginning of the treatment period, on the first day of the treatment period, and at least once a week until the end of the study.
Food consumption. Food consumption was estimated for each animal by calculating the difference between the quantity given and that remaining the next morning. This was estimated daily during the week before treatment and throughout the study. Food consumption was expressed as a percentage of the quantity given. Whenever fasting was required, the food was removed at the end of the day and the estimation of consumption was made at that time, food being made available for approximately five hours on that day.

[11] = infusion 13.5 nmol/day/100 g BW
[12] = Female, treatment period (3 weeks, 75 μg/kg/day i.m.)
[13] = Female, washout period (3 weeks)
[14] = Male, treatment period (3 weeks, 75 μg/kg/day i.m.)

In the case of N[C@@H](Cc1cc(I)c(Oc2cc(I)c(O)c(I)c2)c(I)c1)C(=O)O [T4, L-thyroxine, reference compound], the “Heart” value ([1]; 0.5 nmol/day/100 g BW) is reported as 0.86 ± 0.06 g, the “Heart” value ([1]; 1.5 nmol/day/100 g BW) is reported as 0.90 ± 0.04 g and the “Heart” value ([1]; 4.5 nmol/day/100 g BW) is reported as 1.19 ± 0.03 g. For the same compound, the “Heart” value ([1]; 13.5 nmol/day/100 g BW) was 1.32 ± 0.11 g, the “Heart/BW (%)” value ([1]; infusion 0.5 nmol/day/100 g BW) was 0.35 ± 0.02% and the “Heart/BW (%)” value ([1]; infusion 1.5 nmol/day/100 g BW) was 0.34 ± 0.01%. The “Heart/BW (%)” value ([1]; infusion 4.5 nmol/day/100 g BW) was 0.45 ± 0.02%, the “Heart/BW (%)” value [1, 11] was 0.54 ± 0.02% and the “Serum TSH” value ([2]; infusion 0.5 nmol/day/100 g BW) was 110.2 ± 10.8 ng/mL. For the same compound, the “Serum TSH” value ([2]; infusion 1.5 nmol/day/100 g BW) was 11.8 ± 3.0 ng/mL, the “Serum TSH” value ([2]; infusion 4.5 nmol/day/100 g BW) was 1.0 ± 0.2 ng/mL and the “Serum TSH” value [2, 11] was under 0.8 ng/mL. For the same compound, the “Serum TSH concentration, mean of treatment group” value ([2]; mean over all dose levels of the treated rats, p=<0.04) was 31 ng/mL, the concentration at 13 days ([3]; T4 infusion 0.5 nmol/day/100 g BW) was 43.1 ± 2.8 nM and the concentration at 13 days ([3]; T4 infusion 1.5 nmol/day/100 g BW) was 77.1 ± 9.4 nM. For the same compound, the concentration at 13 days ([3]; T4 infusion 4.5 nmol/day/100 g BW) was 130 ± 9.5 nM, the concentration at 13 days ([3]; T4 infusion 13.5 nmol/day/100 g BW) was 353 ± 31.7 nM and the “Residual Monodeiodinase type 1 activity, adjusted mean” value [4] was 180. For the same compound, the “Residual monodeiodinase type 2 activity, T4/Tetrac (activity of T4 in % of Tetrac)” value ([5]; BAT) was 42%, the “Residual monodeiodinase type 2 activity, adjusted mean” value ([5]; BAT) was 11.8 and the “Residual monodeiodinase type 2 activity, T4/Tetrac (activity of T4 in % of Tetrac)” value ([5]; Brain Cortex) was 18%. The “Residual monodeiodinase type 2 activity, adjusted mean” value ([5]; Brain Cortex) was 5.02, the “Residual Monodeiodinase type 1 mRNA, adjusted mean” value [6] was 5.1 arbitrary units and the “α-MHC mRNA, T4/Tetrac (activity of T4 in % of Tetrac)” value [7] was 21%. For the same compound, the “α-MHC mRNA, adjusted mean” value ([7]; infused rats, adjusted group mean at the mean Ln (TSH) concentration) was 1.13 arbitrary units, the “β-MHC mRNA, adjusted mean” value [8] was 495 arbitrary units and the “GH mRNA, adjusted mean” value [9] was 28644 arbitrary units.

With O=C(O)Cc1cc(I)c(Oc2cc(I)c(O)c(I)c2)c(I)c1 [Tetrac from Henning Laboratory, 3,3′,5,5′-tetraiodothyroacetic acid] the “Body weight gain (%)” value ([10]; Female, treatment period) was “g (+9%)”, the “Food consumption 75%: days of observation/number of days in period” value ([10]; Female, treatment period) was 75%: 13/21 and the “Food consumption 100%: days of observation/number of days in period” value ([10]; Female, treatment period) was 100%: 8/21. For the same compound, the “Food consumption (in words)” value ([10]; Female, treatment period) was “slightly lower food consumption”, the Body weight gain [10, 12] was “+300 g” and the “Body weight gain (%)” value ([10]; Female, washout period) was “g (+3%)”. The “Food consumption 75%: days of observation/number of days in period” value ([10]; Female, washout period) was 75%: 3/21, the “Food consumption 100%: days of observation/number of days in period” value ([10]; Female, washout period) was 100%: 18/21 and the Body weight gain [10, 13] was “+100 g”. For the same compound, the “Body weight gain (%)” value ([10]; Male, treatment period) was “g (+3%)”, the “Food consumption 100%: days of observation/number of days in period” value ([10]; Male, treatment period) was 100%: 21/21 and the Body weight gain [10, 14] was “+200 g”. For the same compound, the “Food consumption 100%: days of observation/number of days in period” value ([10]; Male, washout period) was 100%: 21/21 and the Body weight gain ([10]; Male, washout period (3 weeks)) was 0 g.

In the case of O=C(O)Cc1cc(I)c(Oc2cc(I)c(O)c(I)c2)c(I)c1 [Tetrac from Rhône-Poulenc, 3,3′,5,5′-tetraiodothyroacetic acid], the “Body weight gain (%)” value ([10]; Female, treatment period) is reported as “g (+8%)”, the “Food consumption 75%: days of observation/number of days in period” value ([10]; Female, treatment period) is reported as 75%: 7/21 and the “Food consumption 100%: days of observation/number of days in period” value ([10]; Female, treatment period) is reported as 100%: 14/21. For the same compound, the Body weight gain [10, 12] was “+300 g”, the “Food consumption 75%: days of observation/number of days in period” value ([10]; Female, washout period) was 75%: 5/21 and the “Food consumption 100%: days of observation/number of days in period” value ([10]; Female, washout period) was 100%: 16/21. The Body weight gain [10, 13] was 0 g, the “Body weight gain (%)” value ([10]; Male, treatment period) was “g (+2%)” and the “Food consumption 75%: days of observation/number of days in period” value ([10]; Male, treatment period) was 75%: 1/21. The “Food consumption 100%: days of observation/number of days in period” value ([10]; Male, treatment period) was 100%: 20/21, the Body weight gain [10, 14] was “+100 g” and the “Body weight gain (%)” value ([10]; Male, washout period) was “g (+2%)”. For the same compound, the “Food consumption 100%: days of observation/number of days in period” value ([10]; Male, washout period) was 100%: 21/21 and the Body weight gain ([10]; Male, washout period (3 weeks)) was “+100 g”.
